According to EP1884251A1, “Use of fragrance compositions for the prevention of the development of indole based malodours from faecal and urine based soils” (Takasago International Corporation, priority 2006, dated 2008):

Test: Change in fragrance compound concentration during the indole inhibition test (GC-MS at start and after 24 hours)
Type: physicochemical
Details: in fresh human urine, room temperature; for Decrease in Fragrance Compounds after 24 hours (%) >60%: category >60%; for Decrease in Fragrance Compounds after 24 hours (%) 0-30%: category 0-30%
Experimental: Advantageously, the appropriate fragrance compounds may be selected by using the following preferred indole inhibition test which comprises the following steps: • A) 0.02g of fragrance and 0.02g of Tergitol 15-s-12 was added to 7g of fresh human urine in a 20 ml Headspace vial sealed with a PTFE faced septum and well mixed for 10 minutes using a magnetic stirrer. For a blank to test the suitability of a batch of fresh human urine, 7g of human urine was used with 0.02g of demineralised water and 0.02g of Tergitol 15-s-12. If a control was required, to test the efficacy of product base for example, the control contained 7g of human urine to which was added 0.02g of fragrance, minus the active agents and 0.02g of Tergitol 15-s-12. • B) The vials are placed in an autosampler tray at room temperature. • C) At different times the headspace in the vials is sampled for 5 minutes at 35°C by an SPME fibre (PDMS fibre ex Supelco) after 10 minutes at 35°C (incubation time). • D) The SPME fibre is desorbed 1 minute at 265°C from a CTC Combipal autosampler and injected in splitless mode onto an Agilent GC-MS 5973N with a HP-INNOWAX column (30m x 0.25 x 0.25). (Oven conditions : 50°C during 2min - to 250°C at 10°C/min - 250°C during 5 minutes). • E) Under the above GC-MS conditions, indole has a retention time of 19.14 minutes, and can be recognised by its characteristic ions (m/z 117, m/z 89 and m/z 90). • F) In the range of values determined in this work, the area of the indole peak (117) is linearly related to the actual concentration in the vial, and was used without further correction to establish the concentration of indole in "Active" and "Blank" and if present any "Control" fragrances. • G) The material is deemed to be active if the indole concentration in the test sample is below 0.01ppm (wt/wt) after 24 hours incubation at room temperature and the indole in the blank samples is between 0.25ppm (wt/wt) and 1.25ppm (wt/wt) indole after 24 hours storage at room temperature. • H) The change in the active ingredient concentration is determined by comparing measurements at the start of the experiment and after 24 hours using appropriate characteristic ions.
This can be determined by measuring the fragrance concentration in the sample containing the test cocktail at the start and end of the indole inhibition test as described in step I of the test. If the difference between the measurements is less than 60% preferably less than 30% then the material is considered as not to have changed sufficiently to alter the fragrance note and to be particularly preferred.
A sample of fresh human urine is divided into equal portions and a fragrance containing one or more of the effective materials was added as described in the Indole Inhibition Test. […] The samples were stored and after 24 hours the indole content and fragrance active content is measured by gas chromatography with mass spectrometric (GCMS) detection. Those formulations containing active ingredients prevented the formation of indole while both the unfragranced and the alcohol containing control samples had much greater quantities of indole present. Also for the active compounds a GCMS measurement indicated the extent to which the compound was itself consumed as part of the process. In table 2 the decrease in fragrance components has been classified into 3 categories and the letter Y indicates the appropriate category for the compounds which have been measured. The absence of a letter Y in any category means that the decrease has not been measured for that compound. Table 2. Examples of effective materials

| SMILES | Decrease in Fragrance Compounds after 24 hours (%) 0-30% | also measured |
| --- | --- | --- |
| CCCCCCCCCCC=O [Aldehyde C11] |  | Decrease in Fragrance Compounds after 24 hours (%) >60%: Y (Y= Yes) |
| O=Cc1ccccc1 [Benzaldehyde] | Y (Y= Yes) |  |
| O=C/C=C/c1ccccc1 [Cinnamic aldehyde] | Y (Y= Yes) |  |
| CC(C)=CCCC(C)=CC=O [Citral] | Y (Y= Yes) |  |
| C=C(C)C1CC=C(C=O)CC1 (stereo not shown) [Perilla aldehyde] | Y (Y= Yes) |  |
| CCC/C=C/C=O [Trans 2 hexenal] |  | Decrease in Fragrance Compounds after 24 hours (%) 0-60% (category 0-60%): Y (Y= Yes) |
| CCc1occc(=O)c1O [Veltol Plus] |  | Decrease in Fragrance Compounds after 24 hours (%) >60%: Y (Y= Yes) |
